# Test results: US20190231748A1, “COMPOSITION FOR VAGINA AND ANTIMICROBIAL AGENT COMBINATION FOR USE IN PREPARING COMPOSITION FOR VAGINA” (Shenzhen Eulikan Biotechnology Co., Ltd., priority 2016, published 2019)
# How the values were obtained:
# Assay type in all cases: cell-based
# [1] = system: three strains of Escherichia coli isolated from the vaginal secretion of patients with vaginitis; assay: Growth in enrichment broth (turbidity after 24 hours), clinical strains; set-up: key to growth of Escherichia coli, Bacterial strain 1 / growth of Escherichia coli, Bacterial strain 2 / growth of Escherichia coli, Bacterial strain 3: +: means the growth of bacteria; −: means no growth of bacteria; conditions: for growth of Escherichia coli, Bacterial strain 1 / growth of Escherichia coli, Bacterial strain 2 / growth of Escherichia coli, Bacterial strain 3: enrichment broth, 37° C. for 24 hours, turbidity
# Description: (§1) a. Experimental strains, three strains of Escherichia coli and three strains of Staphylococcus aureus, which were all isolated from the vaginal secretion of patients with vaginitis.
# (§2) b. Enrichment broth, which contained 1 percent of yeast extract powder, 9 percent of sucrose, 0.025 percent of manganese sulfate (MnSO4.4H2O), 0.058 percent of magnesium sulfate (MgSO4.7H2O), and 0.9 percent of lactic acid, the pH value of the broth was adjusted to 4.8, and the enrichment broth was sterilized for later use;
# (§3) (2). Experimental groups: the requirements for aseptic operation technique were strictly followed to prepare the sterile test tubes:
# (§4) a. sodium benzoate group: each test tube contained 5 milliliters of enrichment broth, and was added in 0.05 percent (weight/volume) sodium benzoate;
# (§5) b. 2-phenylethanol group: each test tube contained 5 milliliters of enrichment broth, and was added in 0.05 percent (weight/volume) of 2-phenylethanol;
# (§6) c. sodium propionate group: each test tube contained 5 milliliters of enrichment broth, and was added in 0.25 percent (weight/volume) of sodium propionate;
# (§7) d. “a group of the combinations of sodium benzoate and sodium propionate”: each test tube contained 5 milliliters of enrichment broth, and was added in 0.05 percent (weight/volume) of sodium benzoate and 0.25 percent (weight/volume) of sodium propionate;
# (§8) e. “a group of the combinations of sodium benzoate and 2-phenylethanol”: each test tube contained 5 milliliters of enrichment broth, and was added in 0.05 percent (weight/volume) of sodium benzoate and 0.05 percent (weight/volume) of 2-phenylethanol;
# (§9) f. “a group of the combinations of sodium propionate and 2-phenylethanol”: each test tube contained 5 milliliters of enrichment broth, and was added in 0.25 percent (weight/volume) of sodium propionate and 0.05 percent (weight/volume) of 2-phenylethanol;
# (§10) g. “a group of the combinations of sodium benzoate, sodium propionate and 2-phenylethanol”: each test tube contained 5 milliliters of enrichment broth, and was added in 0.05 percent (weight/volume) of sodium benzoate, 0.25 percent (weight/volume) of sodium propionate, and 0.05 percent (weight/volume) of 2-phenylethanol;
# (§11) h. positive control: one tube that contained 5 milliliters of enrichment broth without adding in any of the 2-phenylethanol, sodium benzoate, and sodium propionate, but inoculated the suspension of Escherichia coli or Staphylococcus aureus.
# (§12) i. negative control: one tube that contained 5 milliliters of enrichment broth without adding in any of the 2-phenylethanol, sodium benzoate, and sodium propionate, and not inoculated the suspension of Escherichia coli or Staphylococcus aureus.
# (§13) The requirements for aseptic operation technique were strictly followed to prepare the bacterial suspensions. The colonies of Escherichia coli and Staphylococcus aureus were diluted with physiological saline respectively to prepare bacterial suspension. The turbidities of the Escherichia coli suspension and the Staphylococcus aureus suspension were adjusted to 0.5 MCF (about 10^8 CFU/ml) by a turbidimeter. 1 milliliter of the 0.5 MCF bacterial suspensions were added into 9 milliliters of the enrichment broth respectively, so each bacterial solution was diluted for ten times to contain 10^7 CFU/ml of bacterial organisms.
# (§14) The requirements for aseptic operation technique were strictly followed to take 100 microliters of the prepared bacterial suspensions respectively, and to add the bacterial suspensions into the aforesaid test tubes from a to h as well as positive control tube. No bacterial suspension was added into the negative control tube i.
# (§15) The above tubes were cultured in a biochemical incubator at 37° C. for 24 hours, then turbidity changes of the test tube solutions were observed and recorded.
# (§16) Remark: “+” means the growth of bacteria; “−” means no growth of bacteria.
# [2] = system: three strains of Staphylococcus aureus isolated from the vaginal secretion of patients with vaginitis; assay: as above; set-up: key to growth of Staphylococcus aureus, Bacterial strain 1 / growth of Staphylococcus aureus, Bacterial strain 2 / growth of Staphylococcus aureus, Bacterial strain 3: +: means the growth of bacteria; −: means no growth of bacteria; conditions: for growth of Staphylococcus aureus, Bacterial strain 1 / growth of Staphylococcus aureus, Bacterial strain 2 / growth of Staphylococcus aureus, Bacterial strain 3: enrichment broth, 37° C. for 24 hours, turbidity
# Description: as §1, §2, §3, §4, §5, §6, §7, §8, §9, §10, §11, §12, §13, §14, §15, §16
# [3] = system: Lactococcus lactis and Lactobacillus jensenii; assay: pH of test gel after co-culture of Lactococcus lactis and Lactobacillus jensenii; conditions: cultivated 32 hours
# Description: (§17) 2.1 Experimental strains: one Lactococcus lactis strain and one Lactobacillus jensenii strain, both were clinical isolates.
# (§18) The pH value was adjusted to 5.0.
# (§19) 2.4 Experimental procedure: the test gel tubes containing different concentrations of antimicrobial agents, as shown in Tables 1 to 6 were inoculated with 100 microliters of Lactobacillus lactis suspension and 100 microliters of Lactobacillus jensenii suspension at the same time. The turbidities of both suspensions were 0.5 MCF. Then the tubes were cultivated at 37° C. and under 5 percent CO2 for 32 hours. Then the changes of the pH values of gels were tested. The gels were smeared, Gram stained, and microscopically examined for the morphology and quantity of bacteria.
# Lactococcus lactis = assay: Gram-stained smear of co-culture gel, Gram-positive cocci (G+c); conditions: for Smear G^+c: cultivated 32 hours
# Description: as §17, §18, §19
# Lactobacillus jensenii = assay: Gram-stained smear of co-culture gel, Gram-positive rods (G+b); conditions: for Smear G^+b: cultivated 32 hours
# Description: as §17, §18, §19
# [4] = system: nine strains of Candida albicans; assay: Growth of Candida in enrichment broth after 24 hours, clinical strains; conditions: agent alone, 0.025 percent (weight/volume), broth pH 4.5, 37° C. 24 hours
# Description: as §2, with “broth:” for “broth,”, “4.5,” for “4.8,”
# (2) Experimental groups: the requirements of aseptic operation technique were strictly followed so to prepare the sterile test tubes;
# a. sodium benzoate group: each test tube contained 5 milliliters enrichment broth, and was added in 0.025 percent (weight/volume) of sodium benzoate;
# b. 2-phenylethanol group: each test tube contained 5 milliliters enrichment broth, and was added in 0.050 percent (weight/volume) of 2-phenylethanol;
# c. sodium propionate group: each test tube contained 5 milliliters enrichment broth, and was added in 0.125 percent (weight/volume) of sodium propionate;
# d. “a group of the combinations of sodium benzoate and sodium propionate”: each test tube contained 5 milliliters enrichment broth, and was added in 0.025 percent (weight/volume) of sodium benzoate and 0.125 percent (weight/volume) of sodium propionate;
# e. “a group of the combinations of sodium benzoate and 2-phenylethanol”: each test tube contained 5 milliliters enrichment broth, and was added in 0.025 percent (weight/volume) of sodium benzoate and 0.050 percent (weight/volume) of 2-phenylethanol;
# f. “a group of the combinations of sodium propionate and 2-phenylethanol”: each test tube contained 5 milliliters enrichment broth, and was added in 0.125 percent (weight/volume) of sodium propionate and 0.050 percent (weight/volume) of 2-phenylethanol;
# g. “a group of the combinations of sodium benzoate, sodium propionate and 2-phenylethanol”: each test tube contained 5 milliliters enrichment broth, and was added in 0.025 percent (weight/volume) of sodium benzoate, 0.125 percent (weight/volume) of sodium propionate and 0.050 percent (weight/volume) of 2-phenylethanol;
# h. positive control: the control tube of enrichment broth without adding in 2-phenylethanol, sodium benzoate, and sodium propionate; but inoculated the suspension of Candida albicans;
# i. negative control: the control tube of enrichment broth without adding in 2-phenylethanol, sodium benzoate, and sodium propionate; and without inoculating Candida albicans;
# The requirements for aseptic operation technique were strictly followed to prepare the suspension of organism. The colonies of each strain of Candida albicans organism were diluted with physiological saline respectively. The turbidities of the suspensions of Candida albicans organism were adjusted to 0.5 MCF (about 10^8 CFU/ml) by a turbidimeter. 1 milliliter of the 0.5 MCF organism suspension was added into 9 milliliters of enrichment broth. Each suspension was diluted for ten times to contain 10^7 CFU/ml of organisms.
# the requirements for aseptic technique were strictly followed to take 100 microliters of the prepared organism suspension respectively and to add the suspension into the test tubes from a to h as well as the positive control tube. No organism suspension was added into the negative control tube i.
# The above tubes were cultured in a biochemical incubator at 37° C. for 24 hours. Then the growth of Candida in each tube was observed and recorded.
# Remark: “+” means the growth of organisms; “−” means no growth of organisms.
# [5] = 0.05 percent (weight/volume) in enrichment broth pH 4.8, 37° C. 24 hours
smiles,measurement,setting,value
OCCc1ccccc1 [b. 0.05% 2-phenylethanol],"growth of Escherichia coli, Bacterial strain 1",[1],+
same,"growth of Escherichia coli, Bacterial strain 2",[1],+
same,"growth of Escherichia coli, Bacterial strain 3",[1],+
same,"growth of Staphylococcus aureus, Bacterial strain 1",[2],+
same,"growth of Staphylococcus aureus, Bacterial strain 2",[2],+
same,"growth of Staphylococcus aureus, Bacterial strain 3",[2],+
CCC(=O)[O-].[Na+] [c. 0.25% sodium propionate],"growth of Escherichia coli, Bacterial strain 1",[1],+
same,"growth of Escherichia coli, Bacterial strain 2",[1],+
same,"growth of Escherichia coli, Bacterial strain 3",[1],+
same,"growth of Staphylococcus aureus, Bacterial strain 1",[2],+
same,"growth of Staphylococcus aureus, Bacterial strain 2",[2],+
same,"growth of Staphylococcus aureus, Bacterial strain 3",[2],+
O=C([O-])c1ccccc1.[Na+] [sodium benzoate],pH value,[3]; 0.035 % in test gel,<3.8
same,pH value,[3]; 0.05 % in test gel,<3.8
same,pH value,[3]; 0.065 % in test gel,4.1
same,pH value,[3]; 0.1 % in test gel,4.6
same,Smear G^+c,Lactococcus lactis; 0.035 % in test gel,G^+c++++
same,Smear G^+c,Lactococcus lactis; 0.05 % in test gel,G^+c++++
same,Smear G^+c,Lactococcus lactis; 0.065 % in test gel,G^+c++
same,inhibition effect on the growth of Lactococcus lactis,Lactococcus lactis; 0.065 to 0.1 percent,stronger inhibition effect
same,Smear G^+c,Lactococcus lactis; 0.1 % in test gel,G^+c+
same,Smear G^+b,Lactobacillus jensenii; 0.035 % in test gel,G^+b+
same,Smear G^+b,Lactobacillus jensenii; 0.05 % in test gel,G^+b+
same,Smear G^+b,Lactobacillus jensenii; 0.065 % in test gel,G^+b++
same,inhibition effect on the growth of Lactobacillus,Lactobacillus jensenii; 0.065 to 0.1 percent,weaker inhibition effect
same,Smear G^+b,Lactobacillus jensenii; 0.1 % in test gel,G^+b+++
same,"could inhibit the growth of Escherichia coli (agent alone, words)",[1]; [5],no one of the three antimicrobial agents
same,"could inhibit the growth of Staphylococcus aureus (agent alone, words)",[2]; [5],no one of the three antimicrobial agents
same,number of the nine Candida albicans strains that grew,[4],nine
